Assay results reported in patent US12171230B2, “Herbicidal compositions” (Bayer Aktiengesellschaft, priority 2018, dated 2024).

How the values were obtained:
Format in all cases: in vivo
Poa annua = assay: Post-emergence herbicidal action against Poa annua; conditions: for Herbicidal action in [%] 14 DAT against Poa annua L. / Herbicidal action in [%] 28 DAT against Poa annua L.: post-emergence
Description: (§1) When the observed efficacies exceed the formal sum total of the values of the tests with individual applications, they also exceed the expected value according to Colby, which is calculated using the formula below and is likewise regarded as an indication of synergism (cf. S. R. Colby; in Weeds 15 (1967) p. 20 to 22): E^C=A+B−([…])
(§2) Here: • A=efficacy of the active compound (A) in % at an application rate of a g a.i./ha; • B=efficacy of the active compound (B) in % at an application rate of b g a.i./ha; • E^C=expected value of the effect of the combination (A)+(B) in % at the combined application rate a+b g a.i./ha.
(§3) Seeds or rhizome pieces of mono- and dicotyledonous weeds are placed in sandy loam in pots, covered with soil and grown in a greenhouse under good growth conditions (temperature, air humidity, water supply). Three weeks after sowing, the test plants were treated at the three-leaf stage with the compositions according to the invention. The compositions according to the invention formulated as spray powders or as emulsion concentrates were sprayed onto the green plant parts in various dosages with an application rate of 300 to 800 l/ha of water (equivalent). After the test plants have been left to stand in the greenhouse under optimal growth conditions for about 3 to 4 weeks, the action of the preparations is scored visually in comparison to untreated controls. The compositions according to the invention also have good post-emergence herbicidal activity against a broad spectrum of economically important gramineous and broadleaf weeds.

Matricaria inodora = assay: Post-emergence herbicidal action against Matricaria inodora; conditions: for Herbicidal action in [%] 14 DAT against Matricaria inodora: post-emergence
Phalaris minor = assay: Post-emergence herbicidal action against Phalaris minor
Description: (§4) The following abbreviations are used in the description and the tables that follow: • g of a.i./ha=grams of active substance (active ingredient) (=100% active compound) per hectare; • The sum total of the effects of the individual applications is reported under E^A; • expected values according to Colby are each reported under E^C.
(§5) The rating period is reported in days after application (DAT).

Viola tricolor = assay: Post-emergence herbicidal action against Viola tricolor
Description: as §4, §5

Centaurea cyano = assay: Post-emergence herbicidal action against Centaurea cyano
Description: Seeds or rhizome pieces of mono- and dicotyledonous weeds are placed in sandy loam in pots, covered with soil and grown in a greenhouse under good growth conditions (temperature, air humidity, water supply). Three weeks after sowing, the test plants were treated at the three-leaf stage with the compositions according to the invention. The compositions according to the invention formulated as spray powders or as emulsion concentrates were sprayed onto the green plant parts in various dosages with an application rate of 300 to 800 l/ha of water (equivalent).

Bromus sterilis = assay: Post-emergence herbicidal action against Bromus sterilis
Description: as §4, §5

Alopecurus myosuroides = assay: Post-emergence herbicidal action against Alopecurus myosuroides
Description: as §4, §5

[1] = test system: Lolium rigidum (resistant biotype); assay: Post-emergence herbicidal action against Lolium rigidum (resistant biotype)
Description: as §4, §5

Galium aparine = assay: Post-emergence herbicidal action against Galium aparine
Description: as §1, §2, §3

Veronica hederifolia = assay: Post-emergence herbicidal action against Veronica hederifolia
Description: as §4, §5

Lolium rigidum = assay: Post-emergence herbicidal action against Lolium rigidum
Description: as §4, §5

Lamium purpureum = assay: Post-emergence herbicidal action against Lamium purpureum; conditions: 100 g of a.i./ha
Description: as §1, §2, §3

Pharbitis purpurea = assay: Post-emergence herbicidal action against Pharbitis purpurea; conditions: 1.3 g of a.i./ha, post-emergence
Description: as §1, §2, §3

Brachiaria platyphylla = assay: Post-emergence herbicidal action against Brachiaria platyphylla; conditions: 4 g of a.i./ha, post-emergence, block with (B9.10) Saflufenacil
Description: as §1, §2, §3

Digitaria sanguinalis = assay: Post-emergence herbicidal action against Digitaria sanguinalis; conditions: 12 g of a.i./ha, post-emergence
Description: as §1, §2, §3

Amaranthus palmeri = assay: Post-emergence herbicidal action against Amaranthus palmeri; conditions: Amaranthus palmeri, post-emergence, 504 h, 1.3 g of a.i./ha, post-emergence, block with (B9.10) Saflufenacil; read-out: Herbicidal action 21 DAT [%] against Amaranthus palmeri
Description: as §1, §2, §3

SMILES: CC(C)N(C(=O)COc1nnc(C(F)(F)F)s1)c1ccc(F)cc1 [(B2.28) Flufenacet]
- Herbicidal action 28 DAT against Poa annua L. (Poa annua; 33 g of a.i./ha): 10%
- Herbicidal action 28 DAT against Poa annua L. (Poa annua; 100 g of a.i./ha): 70%
- Herbicidal action 28 DAT against Poa annua L. (Poa annua; 300 g of a.i./ha): 65%
- Herbicidal action 14 DAT against Matricaria inodora (Matricaria inodora; 33 g of a.i./ha): 0%
- Herbicidal action 28 DAT against Phalaris minor (Phalaris minor; 33 g of a.i./ha): 0%
- Herbicidal action 28 DAT against Phalaris minor (Phalaris minor; 100 g of a.i./ha): 40%
- Herbicidal action 28 DAT against Phalaris minor (Phalaris minor; 300 g of a.i./ha): 85%
- Herbicidal action 14 DAT against Viola tricolor (Viola tricolor; 33 g of a.i./ha): 20%
- Herbicidal action 28 DAT against Viola tricolor (Viola tricolor; 33 g of a.i./ha): 20%
- Herbicidal action 14 DAT against Viola tricolor (Viola tricolor; 100 g of a.i./ha): 50%
- Herbicidal action 28 DAT against Viola tricolor (Viola tricolor; 100 g of a.i./ha): 20%
- Herbicidal action 28 DAT against Viola tricolor (Viola tricolor; 300 g of a.i./ha): 35%
- Herbicidal action 28 DAT against Centaurea cyanus (Centaurea cyano; 100 g of a.i./ha): 20%
- Herbicidal action 14 DAT against Centaurea cyanus (Centaurea cyano; 300 g of a.i./ha): 30%
- Herbicidal action 14 DAT against Bromus sterilis (Bromus sterilis; 33 g of a.i./ha): 35%
- Herbicidal action 14 DAT against Bromus sterilis (Bromus sterilis; 100 g of a.i./ha): 75%
- Herbicidal action 28 DAT against Bromus sterilis (Bromus sterilis; 100 g of a.i./ha): 25%
- Herbicidal action 28 DAT against Bromus sterilis (Bromus sterilis; 300 g of a.i./ha): 65%
- Herbicidal action 14 DAT against Alopecurus myosuroides (Alopecurus myosuroides; 100 g of a.i./ha): 70%
- Herbicidal action 28 DAT against Alopecurus myosuroides (Alopecurus myosuroides; 300 g of a.i./ha): 75%
- Herbicidal action 14 DAT against Lolium rigidum (resistant biotype) ([1]; 100 g of a.i./ha): 20%
- Herbicidal action 28 DAT against Lolium rigidum (resistant biotype) ([1]; 100 g of a.i./ha): 10%
- Herbicidal action 14 DAT against Lolium rigidum (resistant biotype) ([1]; 300 g of a.i./ha): 10%
- Herbicidal action 28 DAT against Lolium rigidum (resistant biotype) ([1]; 300 g of a.i./ha): 20%
- Herbicidal action 28 DAT against Galium aparine (Galium aparine; 33 g of a.i./ha): 60%
- Herbicidal action 28 DAT against Galium aparine (Galium aparine; 100 g of a.i./ha): 65%
- Herbicidal action 14 DAT against Veronica hederifolia (Veronica hederifolia; 33 g of a.i./ha): 35%
- Herbicidal action 14 DAT against Veronica hederifolia (Veronica hederifolia; 100 g of a.i./ha): 40%
- Herbicidal action 14 DAT against Lolium rigidum (Lolium rigidum; 33 g of a.i./ha): 0%
- Herbicidal action 14 DAT against Lolium rigidum (Lolium rigidum; 100 g of a.i./ha): 35%
- Herbicidal action 28 DAT against Lolium rigidum (Lolium rigidum; 100 g of a.i./ha): 20%
- Herbicidal action 14 DAT against Lolium rigidum (Lolium rigidum; 300 g of a.i./ha): 40%
- Herbicidal action 28 DAT against Lolium rigidum (Lolium rigidum; 300 g of a.i./ha): 25%
- Herbicidal action 14 DAT against Lamium purpureum L. (Lamium purpureum): 40%
- Herbicidal action 28 DAT against Lamium purpureum L. (Lamium purpureum): 20%

SMILES: COc1c(Cl)ccc(-c2cc(N)c(Cl)c(C(=O)O)n2)c1F [(B5.31) Halauxifen]
- Herbicidal action in [%] 14 DAT against Poa annua L. (Poa annua; 1 g of a.i./ha): 0%
- Herbicidal action in [%] 14 DAT against Poa annua L. (Poa annua; 3 g of a.i./ha): 0%
- Herbicidal action in [%] 14 DAT against Poa annua L. (Poa annua; 9 g of a.i./ha): 5%
- Herbicidal action in [%] 28 DAT against Poa annua L. (Poa annua; 1 g of a.i./ha): 0%
- Herbicidal action in [%] 28 DAT against Poa annua L. (Poa annua; 3 g of a.i./ha): 0%
- Herbicidal action in [%] 28 DAT against Poa annua L. (Poa annua; 9 g of a.i./ha): 0%
- Herbicidal action in [%] 14 DAT against Matricaria inodora (Matricaria inodora; 1 g of a.i./ha): 30%
- Herbicidal action in [%] 14 DAT against Matricaria inodora (Matricaria inodora; 3 g of a.i./ha): 40%
- Herbicidal action in [%] 14 DAT against Matricaria inodora (Matricaria inodora; 9 g of a.i./ha): 60%
- Herbicidal action in [%] 14 DAT against Phalaris minor (Phalaris minor; 1 g of a.i./ha): 0%
- Herbicidal action in [%] 14 DAT against Phalaris minor (Phalaris minor; 3 g of a.i./ha): 0%
- Herbicidal action in [%] 14 DAT against Phalaris minor (Phalaris minor; 9 g of a.i./ha): 5%
- Herbicidal action in [%] 28 DAT against Phalaris minor (Phalaris minor; 1 g of a.i./ha): 0%
- Herbicidal action in [%] 28 DAT against Phalaris minor (Phalaris minor; 3 g of a.i./ha): 0%
- Herbicidal action in [%] 28 DAT against Phalaris minor (Phalaris minor; 9 g of a.i./ha): 5%
- Herbicidal action in [%] 14 DAT against Bromus sterilis (Bromus sterilis; 1 g of a.i./ha): 0%
- Herbicidal action in [%] 14 DAT against Bromus sterilis (Bromus sterilis; 3 g of a.i./ha): 10%
- Herbicidal action in [%] 14 DAT against Bromus sterilis (Bromus sterilis; 9 g of a.i./ha): 30%
- Herbicidal action in [%] 28 DAT against Bromus sterilis (Bromus sterilis; 1 g of a.i./ha): 0%
- Herbicidal action in [%] 28 DAT against Bromus sterilis (Bromus sterilis; 3 g of a.i./ha): 0%
- Herbicidal action in [%] 28 DAT against Bromus sterilis (Bromus sterilis; 9 g of a.i./ha): 20%
- Herbicidal action in [%] 14 DAT against Alopecurus myosuroides (Alopecurus myosuroides; 1 g of a.i./ha): 0%
- Herbicidal action in [%] 14 DAT against Alopecurus myosuroides (Alopecurus myosuroides; 3 g of a.i./ha): 0%
- Herbicidal action in [%] 14 DAT against Alopecurus myosuroides (Alopecurus myosuroides; 9 g of a.i./ha): 5%
- Herbicidal action in [%] 28 DAT against Alopecurus myosuroides (Alopecurus myosuroides; 1 g of a.i./ha): 0%
- Herbicidal action in [%] 28 DAT against Alopecurus myosuroides (Alopecurus myosuroides; 3 g of a.i./ha): 0%
- Herbicidal action in [%] 28 DAT against Alopecurus myosuroides (Alopecurus myosuroides; 9 g of a.i./ha): 0%
- Herbicidal action in [%] 14 DAT against Lolium rigidum (resistant biotype) ([1]; 1 g of a.i./ha): 0%
- Herbicidal action in [%] 14 DAT against Lolium rigidum (resistant biotype) ([1]; 3 g of a.i./ha): 0%
- Herbicidal action in [%] 14 DAT against Lolium rigidum (resistant biotype) ([1]; 9 g of a.i./ha): 5%
- Herbicidal action in [%] 28 DAT against Lolium rigidum (resistant biotype) ([1]; 1 g of a.i./ha): 0%
- Herbicidal action in [%] 28 DAT against Lolium rigidum (resistant biotype) ([1]; 3 g of a.i./ha): 0%
- Herbicidal action in [%] 28 DAT against Lolium rigidum (resistant biotype) ([1]; 9 g of a.i./ha): 10%
- Herbicidal action in [%] 14 DAT against Veronica hederifolia (Veronica hederifolia; 3 g of a.i./ha): 60%
- Herbicidal action in [%] 14 DAT against Veronica hederifolia (Veronica hederifolia; 9 g of a.i./ha): 60%
- Herbicidal action in [%] 14 DAT against Lolium rigidum (Lolium rigidum; 1 g of a.i./ha): 0%
- Herbicidal action in [%] 14 DAT against Lolium rigidum (Lolium rigidum; 3 g of a.i./ha): 0%
- Herbicidal action in [%] 14 DAT against Lolium rigidum (Lolium rigidum; 9 g of a.i./ha): 5%
- Herbicidal action in [%] 28 DAT against Lolium rigidum (Lolium rigidum; 1 g of a.i./ha): 0%
- Herbicidal action in [%] 28 DAT against Lolium rigidum (Lolium rigidum; 3 g of a.i./ha): 0%
- Herbicidal action in [%] 28 DAT against Lolium rigidum (Lolium rigidum; 9 g of a.i./ha): 0%

SMILES: CC(C)N(C)S(=O)(=O)NC(=O)c1cc(-n2c(=O)cc(C(F)(F)F)n(C)c2=O)c(F)cc1Cl [(B9.10) Saflufenacil, saflufenacil, reference compound]
- Herbicidal action 21 DAT [%] against Pharbitis purpurea (Pharbitis purpurea): 30%
- Herbicidal action 21 DAT [%] against Brachiaria platyphylla (Brachiaria platyphylla): 25%
- Herbicidal action 21 DAT [%] against Digitaria sanguinalis (Digitaria sanguinalis): 50%
- pest or weed control at 1.3 g/ha (Amaranthus palmeri): 70%
